Data on 20 compounds can be found in US8420823B2, “Long-chain fatty acyl elongase inhibitor comprising arylsulfonyl derivative as active ingredient” (MSD K.K., priority 2008, dated 2013).

Broadly, the pIC50 is the IC50 on a negative log10 scale, so that one unit is a factor of ten. High values mean a small IC50, low ones a large IC50.

pIC50: −log10 of the molar value. Where a name gives a salt, the structure may show the parent alone.

The target of the experiment is T1, human LCE (Homo sapiens, UniProt Q9H5J4).
T1 sequence (Q9H5J4 1-265): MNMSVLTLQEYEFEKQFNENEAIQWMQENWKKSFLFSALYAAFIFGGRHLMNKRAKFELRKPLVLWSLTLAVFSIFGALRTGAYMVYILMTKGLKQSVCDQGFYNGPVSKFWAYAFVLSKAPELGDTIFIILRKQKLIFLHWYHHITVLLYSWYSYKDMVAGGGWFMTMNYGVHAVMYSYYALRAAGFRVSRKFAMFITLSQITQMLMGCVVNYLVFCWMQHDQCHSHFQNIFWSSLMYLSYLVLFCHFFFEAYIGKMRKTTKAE
In words: LCE enzyme activity-inhibitory test. The class given is biochemical. As to conditions: [14C]-malonyl CoA / palmitoyl CoA substrate, 37° C., 90 minutes. Put shortly:
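Human LCE (100 μg/mL in enzyme solution) was incubated 90 min at 37 °C in 100 mM potassium phosphate pH 6.5 with palmitoyl CoA, malonyl CoA, [14C]-malonyl CoA, rotenone and fatty acid-free BSA. Acid-stopped, hydrolyzed products were captured on GF/C filters and counted by scintillation. Inhibition was calculated against DMSO control.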
Consider `COc1ccccc1NC(=O)c1cccc(S(=O)(=O)C2CCCCC2)c1` [Example 145, 3-(Cyclohexylsulfonyl)-N-(2-methoxyphenyl)benzamide], for which the negative-log IC50 (pIC50) is 6.68.
`COc1ccc(NC(=O)c2cccc(S(=O)(=O)NCCCCC(=O)O)c2)cc1` [Example 44, 5-{[(3-{[(4-methoxyphenyl)amino]carbonyl}phenyl)sulfonyl]amino}pentanoic acid] gave a negative-log IC50 (pIC50) of 4.82.
As for `COc1ccccc1NC(=O)c1cccc(S(=O)(=O)c2ccccc2)c1` [Example 134, N-(2-methoxyphenyl)-3-(phenylsulfonyl)benzamide], the figure is 6.38; as for `CC(C)c1ccc(NC(=O)c2cccc(S(=O)(=O)c3ccc(F)cc3)c2)cc1` [Example 137, 3-[(4-fluorophenyl)sulfonyl]-N-(4-isopropylphenyl)benzamide], 6.16; as for `CC(C)Oc1cc(NC(=O)c2cccc(S(=O)(=O)N3CCCC(CO)C3)c2)[nH]n1` (centres unmarked) [Example 65, 5-[(3-{[3-(hydroxymethyl)piperidin-1-yl]sulfonyl}benzoyl)amino]-3-isopropoxy-1H-pyrazole hydrochloride], 8.23.
In the case of `CC(C)Oc1ccc(NC(=O)c2cccc(S(=O)(=O)N3C[C@H]4C[C@@H]3CO4)c2)cc1` [Example 1, N-(4-isopropoxyphenyl)-3-[(1R,4R)-2-oxa-5-azabicyclo[2.2.1]hept-5-ylsulfonyl]benzamide], the negative-log IC50 (pIC50) was 5.66.
In turn, `O=C(Nc1ccccn1)c1cccc(S(=O)(=O)N2CCCCC2)c1` [Example 74, 2-{[3-(Piperidin-1-ylsulfonyl)benzoyl}amino]pyridine trifluoroacetate] gave a pIC50 of 5.31.
To `O=C(Nc1cccc2cnccc12)c1cccc(S(=O)(=O)N2CCCCC2)c1` [Example 76, 5-{[3-(piperidin-1-ylsulfonyl)benzoyl]amino}isoquinoline trifluoroacetate] belongs 5.59; to `COc1ccc(NC(=O)c2cccc(S(=O)(=O)NC(C)(C)C)c2)cc1` [Example 45, 3-[(Tert-butylamino)sulfonyl]-N-(4-methoxyphenyl)benzamide], 5.00.
Regarding `COc1ccc(NC(=O)c2cccc(S(=O)(=O)N3CCCCC3)c2)cn1` [Example 102, N-(6-methoxypyridin-3-yl)-3-(piperidin-1-ylsulfonyl)benzamide], the negative logarithm of the IC50 (pIC50) was 5.47.
To `COc1cc(S(=O)(=O)c2ccccc2)cnc1NC(=O)c1cccc(S(=O)(=O)N2CCCC2)c1` [Example 112, N-[3-methoxy-5-(phenylsulfonyl)pyridin-2-yl]-3-(pyrrolidin-1-ylsulfonyl)benzamide] belongs 5.02; to `COc1ccc(NC(=O)c2cccc(S(=O)(=O)N3CCCCC3)c2)cc1` [Example 46, N-(4-methoxyphenyl)-3-(piperidin-1-ylsulfonyl)benzamide], 6.10.
As for `O=C(Nc1ccon1)c1cccc(S(=O)(=O)N2CCCCC2)c1` [Example 82, N-isoxazol-3-yl-3-(piperidin-1-ylsulfonyl)benzamide], the figure is 5.14.
`CC(C)Oc1ccc(NC(=O)c2cccc(S(=O)(=O)N3CCN4CCCC4C3)c2)cc1` (centres unmarked) [Example 12, 3-(Octahydropyrrolo[1,2-a]pyrazin-2(1H)-ylsulfonyl)-N-(4-isopropoxyphenyl)benzamide trifluoroacetate] gave a negative logarithm of the IC50 (pIC50) of 5.17.
As for `COC[C@H]1CCCN1S(=O)(=O)c1cccc(C(=O)Nc2ccc(C(C)C)cc2)c1` [Example 40, N-(4-Isopropylphenyl)-3-{[(2R)-2-(methoxymethyl)pyrrolidin-1-yl]sulfonyl}benzamide], the figure is 5.10.
To `O=C(Nc1ccc(OC2CCCC2)cc1F)c1cccc(S(=O)(=O)c2ccccn2)c1` [Example 125, N-[4-(cyclopentyloxy)-2-fluorophenyl]-3-(pyridin-2-ylsulfonyl)benzamide] belongs 6.62.
For the compound `O=C(NCCCc1ccccc1)c1cccc(S(=O)(=O)N2CCCCC2)c1` [Example 86, N-(3-phenylpropyl)-3-(piperidin-1-ylsulfonyl)benzamide], the pIC50 was 5.52.
For the compound `CC(C)Oc1ccc(NC(=O)c2cccc(S(=O)(=O)N3CCOC(COc4ccccc4)C3)c2)cc1` (centres unmarked) [Example 9, N-(4-isopropoxyphenyl)-3-{[2-(phenoxymethyl)morpholin-4-yl]sulfonyl}benzamide], the negative-log IC50 (pIC50) was 6.82.
To `CCOc1cccnc1NC(=O)c1cccc(S(=O)(=O)N2CCCC2)c1` [Example 113, N-(3-ethoxypyridin-2-yl)-3-(pyrrolidin-1-ylsulfonyl)benzamide] belongs 6.40; to `CC(C)Oc1ccc(NC(=O)c2cccc(S(=O)(=O)N3CCCCC3)c2)cn1` [Example 100, N-(6-isopropoxypyridin-3-yl)-3-(piperidin-1-ylsulfonyl)benzamide], 7.41.
